In ChEMBL document CHEMBL1159351, “New briaranes from the Taiwanese gorgonian Junceella juncea” (J Nat Prod, 2003):
Converted amounts (≈) assume the structure as drawn. The source made the active and inactive calls. The rule behind the calls is not given here.

Key:
Type in all cases: functional, cell-based
[1] = (§1) Cytotoxicity against human HEPA 59T/VGH cells by methylene blue dye assay
[2] = (§2) Cytotoxicity against human KB16 cells by methylene blue dye assay
HEPA 59T/VGH = test: as §1
KB16 = test: as §2

Compound	IC50 [1]	IC50 [2]	Activity (HEPA 59T/VGH)	Activity (KB16)
CC(=O)O[C@H]1[C@@H](OC(C)=O)[C@]2(CO2)[C@H]2[C@](C)([C@H]1OC(C)=O)[C@]1(OC(C)=O)/C=C\C(CO)=C/[C@@H]3OC(=O)[C@H](C)[C@@]3(O)[C@]21OC(C)=O [JUNCENOLIDE C]	6.6 µg/mL (≈ 10.4 µM)	7.8 µg/mL (≈ 12.3 µM)	–	–
CC(=O)O[C@H]1C[C@]2(CO2)[C@H]2[C@](C)([C@H]1OC(C)=O)[C@]1(OC(C)=O)/C=C\C(CO)=C/[C@@H]3OC(=O)[C@H](C)[C@@]3(O)[C@]21OC(C)=O	–	–	inactive	inactive
COCC1=C/[C@@H]2OC(=O)[C@H](C)[C@@]2(O)[C@]2(OC(C)=O)[C@H]3[C@@]4(CO4)[C@H](OC(C)=O)[C@H](OC(C)=O)[C@H](OC(C)=O)[C@]3(C)[C@]2(OC(C)=O)/C=C\1	–	–	inactive	inactive
C=C1/C=C/[C@H](OC(C)=O)[C@@]2(C)[C@@H](OC(C)=O)CC[C@]3(CO3)[C@@H]2[C@H](OC(C)=O)[C@]2(O)[C@@H](C)C(=O)O[C@H]2[C@H]1Cl	–	–	inactive	inactive
